In publication PMC6658524, “Lysosomal degradation of newly formed insulin granules contributes to β cell failure in diabetes” (Nature Communications, 2019):

Key:
Assay in all cases: biochemical
Design in all cases: Eurofins KinaseProfiler panel of 60 kinases, per cent inhibition
ALK(h) = ALK(h) (Homo sapiens, UniProt Q9UM73)
Source text: (§1) A more detailed account of the discovery, chemistry and biochemical properties of this novel class of selective p38δ inhibitors will be given elsewhere.

AMPKα2(h) = molecular target: T1, AMPKα2(h) (Homo sapiens, UniProt P54646)
T1 construct: gene PRKAA2
Source text: as §1

CaMKI(h) = molecular target: T2, CaMKI(h) (Homo sapiens, UniProt Q14012)
T2 construct: gene CAMK1
Source text: as §1

EGFR(h) = EGFR(h) (Homo sapiens, UniProt P00533)
Source text: as §1

EphA1(h) = EphA1(h) (Homo sapiens, UniProt P21709)
Source text: as §1

EphA3(h) = EphA3(h) (Homo sapiens, UniProt P29320)
Source text: as §1

EphB1(h) = EphB1(h) (Homo sapiens, UniProt P54762)
Source text: as §1

EphB4(h) = EphB4(h) (Homo sapiens, UniProt P54760)
Source text: as §1

GSK3β(h) = molecular target: T3, GSK3β(h) (Homo sapiens, UniProt P49841)
T3 construct: gene GSK3B
Source text: as §1

IR(h) = molecular target: T4, IR(h) (Homo sapiens, UniProt P06213)
T4 construct: gene INSR
Source text: as §1

LRRK2(h) = LRRK2(h) (Homo sapiens, UniProt Q5S007)
Source text: as §1

Lck(h) activated = Lck(h) activated (Homo sapiens, UniProt P06239)
Source text: as §1

MAPK1(h) = molecular target: T5, MAPK1(h) (Homo sapiens, UniProt P27361)
T5 construct: gene MAPK3
Source text: as §1

Met(h) = Met(h) (Homo sapiens, UniProt P08581)
Source text: as §1

PDGFRα(h) = molecular target: T6, PDGFRα(h) (Homo sapiens, UniProt P16234)
T6 construct: gene PDGFRA
Source text: as §1

PKA(h) = molecular target: T7, PKA(h) (Homo sapiens, UniProt P17612)
T7 construct: gene PRKACA
Source text: as §1

PKBα(h) = molecular target: T8, PKBα(h) (Homo sapiens, UniProt P31749)
T8 construct: gene AKT1
Source text: as §1

PKCβII(h) = molecular target: T9, PKCβII(h) (Homo sapiens, UniProt P05771)
T9 construct: gene PRKCB; isoform beta II
Source text: as §1

PKCε(h) = molecular target: T10, PKCε(h) (Homo sapiens, UniProt Q02156)
T10 construct: gene PRKCE
Source text: as §1

PKCζ(h) = molecular target: T11, PKCζ(h) (Homo sapiens, UniProt Q05513)
T11 construct: gene PRKCZ
Source text: as §1

Plk1(h) = Plk1(h) (Homo sapiens, UniProt P53350)
Source text: as §1

Syk(h) = Syk(h) (Homo sapiens, UniProt P43405)
Source text: as §1

TrkA(h) = molecular target: T12, TrkA(h) (Homo sapiens, UniProt P04629)
T12 construct: gene NTRK1
Source text: as §1

c-RAF(h) = molecular target: T13, c-RAF(h) (Homo sapiens, UniProt P04049)
T13 construct: gene RAF1
Source text: as §1

T6 sequence (P16234 whole entry): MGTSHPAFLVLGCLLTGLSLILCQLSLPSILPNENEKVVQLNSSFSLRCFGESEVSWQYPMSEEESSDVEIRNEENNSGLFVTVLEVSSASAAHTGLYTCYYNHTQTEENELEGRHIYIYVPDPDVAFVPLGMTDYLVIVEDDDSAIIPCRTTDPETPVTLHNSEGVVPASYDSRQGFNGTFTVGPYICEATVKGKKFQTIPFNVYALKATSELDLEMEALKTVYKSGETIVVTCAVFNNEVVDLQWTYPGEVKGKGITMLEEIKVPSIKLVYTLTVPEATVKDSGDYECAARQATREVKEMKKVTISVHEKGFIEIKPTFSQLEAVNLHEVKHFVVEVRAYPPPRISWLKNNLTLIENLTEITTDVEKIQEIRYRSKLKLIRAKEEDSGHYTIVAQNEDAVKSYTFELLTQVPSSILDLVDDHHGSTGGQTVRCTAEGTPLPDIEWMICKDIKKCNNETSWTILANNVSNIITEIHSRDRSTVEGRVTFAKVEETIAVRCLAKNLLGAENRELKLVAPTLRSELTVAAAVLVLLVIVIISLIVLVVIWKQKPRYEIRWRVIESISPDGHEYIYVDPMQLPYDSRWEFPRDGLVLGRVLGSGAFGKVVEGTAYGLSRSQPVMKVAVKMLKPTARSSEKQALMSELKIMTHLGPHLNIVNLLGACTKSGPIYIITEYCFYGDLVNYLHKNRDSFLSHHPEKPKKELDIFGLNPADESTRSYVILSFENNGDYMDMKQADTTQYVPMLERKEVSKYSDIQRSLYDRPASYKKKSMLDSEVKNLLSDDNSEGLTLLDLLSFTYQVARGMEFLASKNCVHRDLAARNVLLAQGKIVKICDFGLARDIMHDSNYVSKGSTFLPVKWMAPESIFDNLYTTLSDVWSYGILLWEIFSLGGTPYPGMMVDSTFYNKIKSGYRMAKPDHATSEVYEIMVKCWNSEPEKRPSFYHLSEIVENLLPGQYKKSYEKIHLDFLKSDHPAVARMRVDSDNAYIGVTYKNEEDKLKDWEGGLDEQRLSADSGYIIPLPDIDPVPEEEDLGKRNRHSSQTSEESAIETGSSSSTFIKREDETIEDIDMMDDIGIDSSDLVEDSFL
T1 sequence (P54646 whole entry): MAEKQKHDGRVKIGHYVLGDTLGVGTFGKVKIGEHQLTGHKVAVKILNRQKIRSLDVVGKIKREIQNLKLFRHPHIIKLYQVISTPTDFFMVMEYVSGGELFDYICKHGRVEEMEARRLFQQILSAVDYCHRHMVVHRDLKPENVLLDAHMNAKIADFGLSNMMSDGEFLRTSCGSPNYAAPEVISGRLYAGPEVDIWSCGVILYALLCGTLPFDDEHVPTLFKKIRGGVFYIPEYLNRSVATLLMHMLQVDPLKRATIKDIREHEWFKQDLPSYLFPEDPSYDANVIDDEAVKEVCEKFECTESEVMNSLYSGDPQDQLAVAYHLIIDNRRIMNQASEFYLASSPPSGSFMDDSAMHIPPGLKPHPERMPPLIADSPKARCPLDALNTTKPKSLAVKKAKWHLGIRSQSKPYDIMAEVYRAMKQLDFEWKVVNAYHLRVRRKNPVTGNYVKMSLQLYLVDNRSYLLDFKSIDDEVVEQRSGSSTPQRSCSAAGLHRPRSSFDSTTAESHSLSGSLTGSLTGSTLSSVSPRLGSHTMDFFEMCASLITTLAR
T1 sequence (P54619 whole entry partner): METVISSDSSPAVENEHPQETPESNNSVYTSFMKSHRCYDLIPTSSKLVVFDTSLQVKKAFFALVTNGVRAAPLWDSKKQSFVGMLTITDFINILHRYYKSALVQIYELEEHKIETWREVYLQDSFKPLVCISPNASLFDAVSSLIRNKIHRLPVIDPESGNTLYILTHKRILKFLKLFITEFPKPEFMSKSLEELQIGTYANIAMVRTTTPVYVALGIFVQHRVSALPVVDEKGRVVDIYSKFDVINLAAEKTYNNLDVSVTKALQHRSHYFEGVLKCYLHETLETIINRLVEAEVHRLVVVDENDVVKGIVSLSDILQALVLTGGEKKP
T1 sequence (Q9Y478 whole entry partner): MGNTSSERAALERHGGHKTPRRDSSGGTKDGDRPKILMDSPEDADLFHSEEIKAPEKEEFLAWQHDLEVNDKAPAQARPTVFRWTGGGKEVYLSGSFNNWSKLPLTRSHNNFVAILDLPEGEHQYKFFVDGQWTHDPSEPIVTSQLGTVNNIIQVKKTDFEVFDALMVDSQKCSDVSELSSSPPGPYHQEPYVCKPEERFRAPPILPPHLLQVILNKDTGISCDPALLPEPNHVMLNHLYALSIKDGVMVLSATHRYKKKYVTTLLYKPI
Sequence of EphA1(h) (P21709 whole entry): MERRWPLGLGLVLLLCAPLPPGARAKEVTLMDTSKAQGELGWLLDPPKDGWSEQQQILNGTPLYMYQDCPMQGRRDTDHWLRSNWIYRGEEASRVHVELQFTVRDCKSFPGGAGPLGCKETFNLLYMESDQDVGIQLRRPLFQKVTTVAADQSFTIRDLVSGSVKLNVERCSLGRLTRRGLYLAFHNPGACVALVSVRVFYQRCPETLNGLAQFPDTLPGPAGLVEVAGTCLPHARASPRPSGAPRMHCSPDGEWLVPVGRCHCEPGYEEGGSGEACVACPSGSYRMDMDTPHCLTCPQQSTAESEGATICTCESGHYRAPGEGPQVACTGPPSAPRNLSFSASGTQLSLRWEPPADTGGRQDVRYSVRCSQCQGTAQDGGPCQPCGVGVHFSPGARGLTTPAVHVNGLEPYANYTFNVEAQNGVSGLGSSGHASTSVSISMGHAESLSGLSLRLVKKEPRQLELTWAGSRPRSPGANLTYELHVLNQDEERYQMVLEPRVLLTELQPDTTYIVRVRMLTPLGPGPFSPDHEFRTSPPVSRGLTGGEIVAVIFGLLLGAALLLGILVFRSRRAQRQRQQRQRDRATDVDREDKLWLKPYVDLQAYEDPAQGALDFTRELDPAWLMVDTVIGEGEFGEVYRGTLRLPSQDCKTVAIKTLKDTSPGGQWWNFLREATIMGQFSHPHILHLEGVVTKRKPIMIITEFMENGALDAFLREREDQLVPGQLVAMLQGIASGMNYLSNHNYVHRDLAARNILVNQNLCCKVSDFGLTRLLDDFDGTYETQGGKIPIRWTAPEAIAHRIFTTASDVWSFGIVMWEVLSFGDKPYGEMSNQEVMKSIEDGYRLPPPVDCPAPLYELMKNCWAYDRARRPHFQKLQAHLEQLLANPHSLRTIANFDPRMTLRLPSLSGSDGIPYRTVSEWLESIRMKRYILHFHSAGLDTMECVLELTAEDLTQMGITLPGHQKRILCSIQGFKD
T2 sequence (Q14012 whole entry): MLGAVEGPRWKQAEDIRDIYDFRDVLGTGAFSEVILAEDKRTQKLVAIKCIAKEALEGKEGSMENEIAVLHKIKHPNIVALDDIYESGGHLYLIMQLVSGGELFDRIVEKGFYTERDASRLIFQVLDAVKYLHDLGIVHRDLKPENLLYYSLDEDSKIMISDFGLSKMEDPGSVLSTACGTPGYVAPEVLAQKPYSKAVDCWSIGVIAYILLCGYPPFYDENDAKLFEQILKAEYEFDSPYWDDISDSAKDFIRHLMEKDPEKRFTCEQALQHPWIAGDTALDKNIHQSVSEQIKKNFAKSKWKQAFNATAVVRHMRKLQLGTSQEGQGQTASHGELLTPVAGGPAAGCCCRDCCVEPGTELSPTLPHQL
T8 sequence (P31749 whole entry): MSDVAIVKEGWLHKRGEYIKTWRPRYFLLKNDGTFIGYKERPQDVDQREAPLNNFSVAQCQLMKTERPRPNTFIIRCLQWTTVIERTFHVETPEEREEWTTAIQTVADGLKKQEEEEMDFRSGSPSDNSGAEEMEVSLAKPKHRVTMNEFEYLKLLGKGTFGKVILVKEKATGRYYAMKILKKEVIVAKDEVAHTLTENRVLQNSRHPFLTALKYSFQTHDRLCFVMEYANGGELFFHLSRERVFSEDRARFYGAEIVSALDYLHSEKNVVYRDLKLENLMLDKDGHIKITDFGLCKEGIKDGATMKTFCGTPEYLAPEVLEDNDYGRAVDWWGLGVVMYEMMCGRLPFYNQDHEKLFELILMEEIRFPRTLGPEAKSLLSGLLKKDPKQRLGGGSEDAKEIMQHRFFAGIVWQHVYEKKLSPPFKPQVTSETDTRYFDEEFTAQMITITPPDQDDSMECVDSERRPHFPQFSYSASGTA
T10 sequence (Q02156 whole entry): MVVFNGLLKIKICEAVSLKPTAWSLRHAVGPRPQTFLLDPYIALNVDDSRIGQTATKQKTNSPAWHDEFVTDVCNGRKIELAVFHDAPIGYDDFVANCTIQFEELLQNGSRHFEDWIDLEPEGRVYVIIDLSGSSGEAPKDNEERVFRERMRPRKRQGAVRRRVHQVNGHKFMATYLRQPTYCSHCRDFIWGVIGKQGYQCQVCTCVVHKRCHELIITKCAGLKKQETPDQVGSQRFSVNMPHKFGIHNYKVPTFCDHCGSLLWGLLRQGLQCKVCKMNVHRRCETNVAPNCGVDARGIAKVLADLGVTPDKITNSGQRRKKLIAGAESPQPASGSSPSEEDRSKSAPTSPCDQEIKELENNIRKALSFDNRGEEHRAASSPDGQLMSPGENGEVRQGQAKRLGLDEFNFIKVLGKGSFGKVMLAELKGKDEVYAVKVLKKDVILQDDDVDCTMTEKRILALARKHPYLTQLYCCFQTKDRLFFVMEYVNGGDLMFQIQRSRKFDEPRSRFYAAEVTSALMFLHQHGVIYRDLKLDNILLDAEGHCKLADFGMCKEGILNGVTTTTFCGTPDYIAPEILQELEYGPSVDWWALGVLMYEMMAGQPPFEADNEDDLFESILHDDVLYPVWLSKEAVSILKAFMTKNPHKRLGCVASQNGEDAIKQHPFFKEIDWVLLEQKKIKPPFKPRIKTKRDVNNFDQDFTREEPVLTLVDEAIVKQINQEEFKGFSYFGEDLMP

Compound: CCN1CCOc2nc(N3CCOCC3)nc(-c3ccc(NC(=O)OC)cc3)c2C1=O [Compound A]
- inhibition at 1 µM (ALK(h)): 4%
- inhibition at 10 µM (ALK(h)): 0%
- inhibition at 1 µM (AMPKα2(h)): -5%
- inhibition at 10 µM (AMPKα2(h)): 5%
- inhibition at 1 µM (CaMKI(h)): 5%
- inhibition at 10 µM (CaMKI(h)): 11%
- inhibition at 1 µM (EGFR(h)): -17%
- inhibition at 10 µM (EGFR(h)): 4%
- inhibition at 1 µM (EphA1(h)): 0%
- inhibition at 10 µM (EphA1(h)): 7%
- inhibition at 1 µM (EphA3(h)): 8%
- inhibition at 10 µM (EphA3(h)): 12%
- inhibition at 1 µM (EphB1(h)): 6%
- inhibition at 10 µM (EphB1(h)): 10%
- inhibition at 1 µM (EphB4(h)): -3%
- inhibition at 10 µM (EphB4(h)): 8%
- inhibition at 1 µM (GSK3β(h)): 1%
- inhibition at 10 µM (GSK3β(h)): 12%
- inhibition at 1 µM (IR(h)): -21%
- inhibition at 10 µM (IR(h)): -14%
- inhibition at 1 µM (LRRK2(h)): -18%
- inhibition at 10 µM (LRRK2(h)): -11%
- inhibition at 1 µM (Lck(h) activated): -7%
- inhibition at 10 µM (Lck(h) activated): 13%
- inhibition at 1 µM (MAPK1(h)): 0%
- inhibition at 10 µM (MAPK1(h)): 5%
- inhibition at 1 µM (Met(h)): -16%
- inhibition at 10 µM (Met(h)): -7%
- inhibition at 1 µM (PDGFRα(h)): 1%
- inhibition at 10 µM (PDGFRα(h)): 0%
- inhibition at 1 µM (PKA(h)): -8%
- inhibition at 10 µM (PKA(h)): -22%
- inhibition at 1 µM (PKBα(h)): 14%
- inhibition at 10 µM (PKBα(h)): 17%
- inhibition at 1 µM (PKCβII(h)): 0%
- inhibition at 10 µM (PKCβII(h)): 1%
- inhibition at 1 µM (PKCε(h)): 8%
- inhibition at 10 µM (PKCε(h)): 12%
- inhibition at 1 µM (PKCζ(h)): 0%
- inhibition at 10 µM (PKCζ(h)): 10%
- inhibition at 1 µM (Plk1(h)): 2%
- inhibition at 10 µM (Plk1(h)): 11%
- inhibition at 1 µM (Syk(h)): 4%
- inhibition at 10 µM (Syk(h)): 20%
- inhibition at 1 µM (TrkA(h)): -21%
- inhibition at 10 µM (TrkA(h)): 5%
- inhibition at 1 µM (c-RAF(h)): -5%
- inhibition at 10 µM (c-RAF(h)): 2%
